Test results: patent publication US20190201508A1, “METHODS FOR TREATING CANCERS USING ACE INHIBITORS, ARB, OR CELECOXIB AND OLMESARTAN” (Marina Biotech, Inc., priority 2016, published 2019)

Assays:
SUM149-RR tumor cells = assay: Orthotopic human inflammatory breast cancer model SUM149-RR, lymph node metastatic burden (luciferase); assay type: in vivo, CB-17 SCID mice; conditions: for change in ILN burden versus control (in words): single agents or combination with CEL
Method: (§1) Luciferase-tagged SUM149 and MDA-MB-435 cell lines were used to determine the incidence and the burden of locoregional and systemic spread. Mice were monitored twice a week for 9-16 weeks for percent weight loss, tumor volume and survival outcome. Metastatic tumor burden and incidence was measured as luciferase expression in lymph nodes and lungs and normalized to total protein.
(§2) Tumors were monitored 2-3 times per week with digital calipers. Once tumors reached 1500 mm3, the mice were sacrificed. Tumors from MDA-MB-435-Luc and SUM149-RR were snap frozen and ipsilateral lymph nodes and lungs were collected for assessing metastatic burden and incidence by measuring luciferase expression per organ and normalized to total protein. Difference in incidence or burden as compared to the control was assessed by a Fisher exact test, or a Mann-Whitney test.
as §1, with “Methods: Three anti-hypertensive drugs (Lisinopril [LIS], Olmesartan medoxomil [OLM] and Hydrochlorothiazide [HCTZ]) were evaluated for tumor growth suppression and metastatic spread in xenograft models of inflammatory breast cancer/SUM149, melanoma/MDA-MB-435 and glioblastoma/U87. Luciferase-tagged” for “Luciferase-tagged”, “spread. […]” for “spread.”
Seven days post implantation, mice in subgroups of 5 received either saline, LIS (15 mg/kg), OLM (30 mg/kg) or HCTZ (10 mg/kg) for 5 days/wk for 3 weeks.
as §2, with “The tumor was” for “Tumors from MDA-MB-435-Luc and SUM149-RR were”

[1] = test system: inflammatory breast cancer/SUM149, melanoma/MDA-MB-435 and glioblastoma/U87 xenografts; assay: Tumor growth suppression across xenograft models (pooled statements); assay type: in vivo, mice; conditions: for effect on tumor growth (in words): single agents, cancer models studied (breast cancer, melanoma, glioblastoma)
Method: as §1
Subcutaneous melanoma xenograft tumor model: MDA-MB-435-Luc: Female SCID mice were implanted with 4×10^6 MDA-MB-435-Luciferase tumor cells in 50% Matrigel subcutaneously on the left flank.
Orthotopic human inflammatory breast cancer model: SUM149-RR: Female CB-17 SCID mice were implanted in the mammary fat pad with 4×10^6 SUM149-RR tumor cells in 50% Matrigel.
T/C (%) was calculated as the mean RTV (relative tumor volume) of treated tumors (T) divided by the mean RTV of control tumors (C)×100%.
as §2
(§3) Methods: Three anti-hypertensive drugs (Lisinopril [LIS], Olmesartan medoxomil [OLM] and Hydrochlorothiazide [HCTZ]) were evaluated for tumor growth suppression and metastatic spread in xenograft models of inflammatory breast cancer/SUM149, melanoma/MDA-MB-435 and glioblastoma/U87. Luciferase-tagged SUM149 and MDA-MB-435 cell lines were used to determine the incidence and the burden of locoregional and systemic spread. CB-17 SCID mice were implanted either subcutaneously (MDA-MB-435 and U87) or orthotopically (SUM149) with 4×10^6 cancer cells and oral administration of test agents for 3 weeks was initiated on post-tumor inoculation Day 7. Mice were monitored twice a week for 9-16 weeks for percent weight loss, tumor volume and survival outcome. Metastatic tumor burden and incidence was measured as luciferase expression in lymph nodes and lungs and normalized to total protein.
Subcutaneous human melanoma xenograft tumor model: MDA-MB-435-Luciferase: Female SCID mice were implanted with 4×10^6 MDAMB-435-Luc tumor cells in 50% Matrigel subcutaneously on the left flank. Seven days post implantation, tumor-bearing mice in subgroups received either saline, Lisinopril (LIS, 15 mg/kg), Olmesartan (OLM, 30 mg/kg); or Hydrochlorothiazide (HCTZ, 10 mg/kg) for 5 consecutive days for 3 weeks.
Female CB-17 SCID mice were implanted in the mammary fat pad with 4×10^6 SUM149-RR tumor cells in 50% Matrigel. Seven days post implantation, mice in subgroups of 5 received either saline, LIS (15 mg/kg), OLM (30 mg/kg) or HCTZ (10 mg/kg) for 5 days/wk for 3 weeks.
Subcutaneous human U87-MG glioblastoma model: 3×10^6 U87 glioblastoma cells were injected into the right flank of Balb/c nude mice and tumor-bearing (50-250 mm3) mice were randomized into 10 groups (10 mice/group) and the antitumor activities of OLM were evaluated following daily PO administration (30 or 60 mg/kg, QD×21). T/C (%) was calculated as the mean RTV (relative tumor volume) of treated tumors (T) divided by the mean RTV of control tumors (C)×100%.
as §2, with “The tumor was” for “Tumors from MDA-MB-435-Luc and SUM149-RR were”

MDA-MB-435 xenograft = MDA-MB-435 xenograft tumor growth and tumor burden; assay type: in vivo, CB-17 SCID mice; conditions: MDA-MB-435 model; LIS 15 mg/kg, 5 consecutive days for 3 weeks
Method: as §2
as §3, with “CB-17 SCID mice were implanted either subcutaneously (MDA-MB-435 and U87) or orthotopically (SUM149) with 4×10^6 cancer cells and oral administration of test agents for 3 weeks was initiated on post-tumor inoculation Day 7.” left out
Tumors were monitored 2-3 times per week with digital calipers. Once tumors reached 1500 mm3, the mice were sacrificed.

tumor blood vessels (BV) = assay: Tumor blood vessel density and normalization (FIG. 6A/6B); assay type: in vivo; conditions: control tumors had low BV density and necrosis

Row | SMILES | change in ILN burden versus control (in words) (SUM149-RR tumor cells) | effect on tumor growth (in words) [1] | effect on tumor growth (in words) ([1]; listed as HTCZ) | reduction in tumor burden (MDA-MB-435 xenograft) | effect on tumor growth (in words) ([1]; listed as Lisinopril) | effect on tumor blood vessels (BV) (tumor blood vessels (BV); FIG. 6A, single agents) | effect on tumor blood vessels (BV) (tumor blood vessels (BV); FIG. 6B, in combination) | fold decrease in ILN tumor burden versus saline control (SUM149-RR tumor cells; OLM 30 mg/kg alone) [fold] | average tumor burden in the ipsilateral lymph nodes (ILN) (SUM149-RR tumor cells; OLM 30 mg/kg, saline control 17.6±8.6, p-value=0.01 by Mann-Whitney test) | lymph node burden (SUM149-RR tumor cells; OLM versus control 17.6±8.6, P=0.01) | inhibition of tumor growth ([1]; range over all three xenograft models (SUM149, MDA-MB-435, U87)) | effect on tumor growth (in words) ([1]; listed as olmesartan)
1 | NS(=O)(=O)c1cc2c(cc1Cl)NCNS2(=O)=O [HCTZ, Hydrochlorothiazide] | not | no effect on tumor growth | did not show the same effect | – | – | – | – | – | – | – | – | –
2 | NCCCC[C@H](N[C@@H](CCc1ccccc1)C(=O)O)C(=O)N1CCC[C@H]1C(=O)O [LIS, Lisinopril] | – | significant inhibition of tumor growth | – | significant reduction in tumor burden | showed tumor growth suppression | no major effect | no major effect | – | – | – | – | –
3 | CCCc1nc(C(C)(C)O)c(C(=O)OCc2oc(=O)oc2C)n1Cc1ccc(-c2ccccc2-c2nn[nH]n2)cc1 [OLM, (5-methyl-2-oxo-2H-1,3-dioxol-4-yl)methyl 4-(2-hydroxypropan-2-yl)-2-propyl-1-({4-[2-(2H-1,2,3,4-tetrazol-5-yl)phenyl]phenyl}methyl)-1H-imidazole-5-carboxylate] | statistically significant decrease in ILN burden | significant inhibition of tumor growth | – | – | – | facilitated the normalization and stabilization of tumor BVs | facilitated the normalization and stabilization of tumor BVs | 7.1 | 2.4±0.6 ×104 RLU per mg of protein | 2.4±0.6 ×10^4 RLU/mg of protein | 50-61% | showed tumor growth suppression
